Patent US8765908B2, “Compositions for improving bone mass” (The UAB Research Foundation, priority 2010, dated 2014)
“Also recorded” adds a separate entry of the source.

Columns and labels:
[1] = test system: RYBP; experiment: Western blot of RYBP expression in retrovirally infected BMMs; type: cell-based, mouse; details: BMMs infected with retrovirus expressing siRNA; anti-RYBP Western blot
Procedure: Western blot analysis was performed as previously described (Xu et al., 2006; Liu et al., 2004). RAW264.7 cells cultured in DMEM containing 10% HI-FBS and penicillin/streptomycin were treated with RANKL (100 ng/ml) for various times before being lysed for Western blot analysis with anti-RYBP antibody from Abcam Inc (Cambridge, Mass.). Primary BMMs were normally cultured in α-MEM containing 10% HI-FBS and penicillin/streptomycin in the presence of M-CSF (44 ng/ml). Uninfected BMMs or BMMs infected with retrovirus encoding siRNA and/or tagged-RYBP were cultured in the presence of M-CSF (44 ng/ml) with or without RANKL (100 ng/ml) for various times and then lysed for Western blot analysis. For Western blot analysis of IP complex, all 35 μl of the eluted proteins from each IP assay was loaded for Western blot analysis with anti-HA antibody (Clontech Laboratories, Inc), anti-Myc antibody (Clontech Laboratories, Inc), anti-RYBP (Abcam Inc) antibody and anti-β-actin antibody (Santa Cruz Biotechnology).
293GPG cells were cultured in DMEM with 10% HI-FBS supplemented with tetracycline, puromycin, G418 and penicillin/streptomycin as previously described {2222). Plat-E cells were cultured in DMEM with 10% HI-FBS supplemented with puromycin, blasticidin and penicillin/streptomycin as previously described {Morita, 2000 3155/id}. […]

[2] = test system: primary BMMs; experiment: In vitro osteoclastogenesis assay (TRAP staining); type: cell-based, mouse; details: TRAP stain
Procedure: Primary BMMs were cultured in 24-well tissue culture plates (5×10^4 cells/well) with a-MEM containing 10% heat-inactivated FBS in the presence of 0.02 volume of culture supernatant of M-CSF-producing cells (final M-CSF concentration 44 ng/ml) (Takeshita et al., 2000) and 100 ng of GST-RANKL (Lam et al., 2000). […]
293GPG cells were cultured in DMEM with 10% HI-FBS supplemented with tetracycline, puromycin, G418 and penicillin/streptomycin as previously described {2222). Plat-E cells were cultured in DMEM with 10% HI-FBS supplemented with puromycin, blasticidin and penicillin/streptomycin as previously described {Morita, 2000 3155/id}. The retroviral vectors were transiently transfected into 293GPG cells or Plat-E cells using Lipofectamine Plus Reagent (Invitrogen). Virus supernatant was collected at 48, 72 and 96 h after transfection. Cells were then infected with virus for 24 hours in the presence of M-CSF (220 ng/ml) and 8 μg/ml polybrene. Cells were further cultured in the presence of M-CSF (220 ng/ml) and 2 μg/ml puromycin for selection and expansion of transduced cells. Selected cells were subsequently used for various studies.
A scrambled siRNA sequence was designed to use as control (FIG. 3A). BMMs were uninfected or infected with retrovirus expressing scrambled RNA or RYBP siRNA. […]

[3] = target: T1, 49-aa RANK segment (residues 498-546) containing the IVVY motif (Mus musculus, UniProt O35305); experiment: Two-hybrid screen of osteoclast precursor cDNA library; type: binding; details: yeast AH109, medium stringency
T1 construct: expressed in transfected cells; host or cells: yeast strain AH109
T1 sequence (O35305 498-546): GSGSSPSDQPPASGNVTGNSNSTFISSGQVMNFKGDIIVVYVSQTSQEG
Source text: An osteoclast precursor cDNA library was constructed using CloneMiner™ cDNA Library Construction System from Invitrogen (Carlsbad, Calif.). Briefly, mRNA was isolated from mouse primary BMMs and used as template for cDNA synthesis. Synthesized cDNA was size fractionated by column chromatography and the desired size of cDNA (>500 bp) was pooled and cloned into pDONOR™222 vector with BP Clonase™ to make Osteoclast Precursor cDNA Entry Library. pGBKT7 AD Vector of MATCHMAKER Two-Hybrid System 3 (Invitrogen) was converted to a Gateway® destination vector using Gateway® Vector Conversion System (Invitrogen). The whole set of cDNA clones was then transferred from the Osteoclast Precursor cDNA Entry Library into the modified pGBKT7 AD Vector to prepare an Osteoclast Precursor Two-Hybrid cDNA Library.
A 49-aa RANK segment (residues 498-546) containing the IVVY (SEQ ID NO: 4) motif (residues 535-538) was used as bait in the two-hybrid screening. A mouse cDNA region encoding this 49-aa RANK fragment was cloned in frame into pGBKT7 DNA-BD Vector of the MATCHMAKER Two-Hybrid System 3 (Invitrogen). The resulting plasmid was named as pGBKT7 DNA-BD-RANK. […]

RYBP siRNA: retrovirally expressed siRNA targeting the RYBP mRNA region encoding DPPSEA (AGCUUCACUAGGAGGAUCU)
RYBP expression [1]: significantly suppressed RYBP expression; also recorded: dramatically knocked down endogenous RYBP expression
osteoclastogenesis ([2]; infected BMMs treated with M-CSF (44 ng/ml) and RANKL (100 ng/ml) for 4 days): inhibited osteoclastogenesis

B1: RYBP-HA: WT RYBP with HA tag at C-terminus, siRNA target region silently mutated (protein, UniProt Q8N488 1-228, looked up)
RING1 and YY1-binding protein: MTMGDKKSPTRPKRQAKPAADEGFWDCSVCTFRNSAEAFKCSICDVRKGTSTRKPRINSQLVAQQVAQQYATPPPPKKEKKEKVEKQDKEKPEKDKEISPSVTKKNTNKKTKPKSDILKDPPSEANSIQSANATTKTSETNHTSRPRLKNVDRSTAQQLAVTVGNVTVIITDFKEKTRSSSTSSSTVTSSAGSEQQNQSSSGSESTDKGSSRSSTPKGDMSAVNDESF
modifications: C-terminal HA tag
notes: WT RYBP with HA tag at C-terminus, siRNA target region silently mutated
rescue of osteoclastogenesis ([2]; BMMs co-infected with RYBP siRNA retrovirus, M-CSF and RANKL 4 days): effectively rescued osteoclastogenesis

B2: RYBP: RING1A and YY1 binding protein, amino acid sequence SEQ ID NO:2 (protein, listed as Mus sp.)
chain: MTMGDKKSPTRPKRQAKPAADEGFWDCSVCTFRNSAEAFKCSICDVRKGTSTRKPRINSQLVAQQVAQQYATPPPPKKEKKEKVEKPDKEKPEKDKDISPSVTKKNTNKKTKPKSDILKDPPSEANSIQSANATTKTSETNHTSRPRLKNVDRSTAQQLAVTVGNVTVIITDFKEKTRSSSTSSSTVTSSAGSEQQNQSSSGSESTDKGSSRSSTPKGDMSAVNDESF
affinity for the bait (time a clone takes to become blue) [3]: highest affinity for the bait
